{"source": "ChEMBL document CHEMBL5465560", "about": "“Selectivity Literature for EUbOPEN Chemogenomic Library” (2024)", "key": {"D(2) dopamine receptor": {"biological_target": "D(2) dopamine receptor (Homo sapiens, UniProt P14416)", "sequence (P14416 whole entry)": "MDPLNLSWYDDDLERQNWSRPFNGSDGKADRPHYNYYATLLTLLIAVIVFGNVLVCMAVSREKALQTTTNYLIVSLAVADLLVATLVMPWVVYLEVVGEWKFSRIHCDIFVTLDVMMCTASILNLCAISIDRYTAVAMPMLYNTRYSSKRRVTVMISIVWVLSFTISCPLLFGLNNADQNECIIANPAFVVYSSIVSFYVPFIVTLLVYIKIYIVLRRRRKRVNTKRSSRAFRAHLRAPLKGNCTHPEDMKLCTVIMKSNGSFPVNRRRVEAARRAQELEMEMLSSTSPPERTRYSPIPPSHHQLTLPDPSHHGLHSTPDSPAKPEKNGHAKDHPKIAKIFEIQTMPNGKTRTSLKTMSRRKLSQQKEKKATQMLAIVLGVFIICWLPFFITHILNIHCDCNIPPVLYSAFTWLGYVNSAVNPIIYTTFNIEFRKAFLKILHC", "assay": "Selectivity interaction (Eurofins CEREP Diversity Profile (receptors and ion channels)) EUB0000279b DRD2", "details": "at 10 µM"}, "[1]": {"biological_target": "Fibroblast growth factor receptor 4 (Homo sapiens, UniProt P22455)", "sequence (P22455 22-802 limits assumed)": "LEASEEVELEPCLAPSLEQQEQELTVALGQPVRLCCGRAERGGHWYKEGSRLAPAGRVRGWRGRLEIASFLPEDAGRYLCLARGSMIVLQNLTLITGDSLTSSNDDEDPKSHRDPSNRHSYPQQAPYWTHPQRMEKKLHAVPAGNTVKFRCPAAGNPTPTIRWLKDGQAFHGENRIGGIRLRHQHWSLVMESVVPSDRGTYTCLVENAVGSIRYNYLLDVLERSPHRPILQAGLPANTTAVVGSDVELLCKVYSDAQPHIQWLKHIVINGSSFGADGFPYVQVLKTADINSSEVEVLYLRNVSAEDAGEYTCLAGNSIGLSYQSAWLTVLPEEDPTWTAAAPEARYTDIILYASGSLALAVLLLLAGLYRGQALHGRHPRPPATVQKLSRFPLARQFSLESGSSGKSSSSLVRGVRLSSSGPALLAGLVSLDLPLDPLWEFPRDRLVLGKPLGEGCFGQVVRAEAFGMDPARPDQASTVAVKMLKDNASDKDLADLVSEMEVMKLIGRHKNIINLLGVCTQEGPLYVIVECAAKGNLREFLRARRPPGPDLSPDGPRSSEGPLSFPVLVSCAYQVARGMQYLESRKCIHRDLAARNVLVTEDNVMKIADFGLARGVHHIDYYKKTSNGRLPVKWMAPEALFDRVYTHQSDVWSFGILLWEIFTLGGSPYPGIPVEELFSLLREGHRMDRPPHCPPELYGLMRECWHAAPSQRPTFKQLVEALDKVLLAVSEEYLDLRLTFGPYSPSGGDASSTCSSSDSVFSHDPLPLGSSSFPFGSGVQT", "assay": "Selectivity interaction (KinomeScan (DiscoverX)) EUB0000666a FGFR4", "details": "at 10 µM"}, "[2]": {"biological_target": "Casein kinase II subunit alpha (Homo sapiens, UniProt P68400)", "assay": "Selectivity interaction (SelectScreen profiling (Invitrogen)) EUB0000607a CSNK2A1", "details": "at 2 µM"}, "[3]": {"biological_target": "Tyrosine-protein kinase Fgr (Homo sapiens) (UniProt P09769)", "sequence (P09769 2-529 limits assumed)": "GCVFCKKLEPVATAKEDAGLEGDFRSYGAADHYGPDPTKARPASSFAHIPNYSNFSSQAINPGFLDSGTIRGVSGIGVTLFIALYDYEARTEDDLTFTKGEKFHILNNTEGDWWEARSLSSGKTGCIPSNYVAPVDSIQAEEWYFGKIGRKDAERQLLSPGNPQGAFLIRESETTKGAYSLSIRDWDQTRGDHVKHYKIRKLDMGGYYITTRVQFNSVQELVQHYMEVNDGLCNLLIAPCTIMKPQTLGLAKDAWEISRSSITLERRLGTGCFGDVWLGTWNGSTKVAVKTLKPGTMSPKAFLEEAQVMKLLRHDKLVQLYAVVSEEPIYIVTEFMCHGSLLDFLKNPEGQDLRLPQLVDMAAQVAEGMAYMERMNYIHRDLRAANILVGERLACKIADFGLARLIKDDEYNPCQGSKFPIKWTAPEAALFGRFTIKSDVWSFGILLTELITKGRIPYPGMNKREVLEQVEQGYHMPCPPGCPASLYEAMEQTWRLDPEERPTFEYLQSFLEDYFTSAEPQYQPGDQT", "assay": "Selectivity interaction (Upstate Kinase Profiler service (Millipore)) EUB0000056c FGR", "details": "at 1 µM"}, "[4]": {"biological_target": "T1, Serine/threonine-protein kinase Sgk2 (Homo sapiens) (UniProt Q9HBY8)", "T1 sequence (whole entry)": "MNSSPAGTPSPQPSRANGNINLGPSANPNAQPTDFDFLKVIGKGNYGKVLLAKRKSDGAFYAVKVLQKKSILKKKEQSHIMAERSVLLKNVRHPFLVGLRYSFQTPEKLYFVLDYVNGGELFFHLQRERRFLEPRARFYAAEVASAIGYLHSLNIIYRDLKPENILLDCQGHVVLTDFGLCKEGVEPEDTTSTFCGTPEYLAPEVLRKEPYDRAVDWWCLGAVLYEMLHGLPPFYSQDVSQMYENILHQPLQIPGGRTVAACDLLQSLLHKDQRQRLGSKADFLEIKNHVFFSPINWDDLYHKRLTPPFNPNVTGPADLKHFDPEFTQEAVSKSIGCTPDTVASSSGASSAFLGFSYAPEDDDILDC", "assay": "Selectivity interaction (Upstate Kinase Profiler service (Millipore)) EUB0000056c SGK2", "details": "at 1 µM"}, "[5]": {"biological_target": "Serine/threonine-protein kinase 33 (Homo sapiens) (UniProt Q9BYT3)", "details": "at 10 µM"}, "[6]": {"biological_target": "Serine/threonine-protein kinase B-raf (Homo sapiens) (UniProt P15056)", "sequence (P15056 whole entry)": "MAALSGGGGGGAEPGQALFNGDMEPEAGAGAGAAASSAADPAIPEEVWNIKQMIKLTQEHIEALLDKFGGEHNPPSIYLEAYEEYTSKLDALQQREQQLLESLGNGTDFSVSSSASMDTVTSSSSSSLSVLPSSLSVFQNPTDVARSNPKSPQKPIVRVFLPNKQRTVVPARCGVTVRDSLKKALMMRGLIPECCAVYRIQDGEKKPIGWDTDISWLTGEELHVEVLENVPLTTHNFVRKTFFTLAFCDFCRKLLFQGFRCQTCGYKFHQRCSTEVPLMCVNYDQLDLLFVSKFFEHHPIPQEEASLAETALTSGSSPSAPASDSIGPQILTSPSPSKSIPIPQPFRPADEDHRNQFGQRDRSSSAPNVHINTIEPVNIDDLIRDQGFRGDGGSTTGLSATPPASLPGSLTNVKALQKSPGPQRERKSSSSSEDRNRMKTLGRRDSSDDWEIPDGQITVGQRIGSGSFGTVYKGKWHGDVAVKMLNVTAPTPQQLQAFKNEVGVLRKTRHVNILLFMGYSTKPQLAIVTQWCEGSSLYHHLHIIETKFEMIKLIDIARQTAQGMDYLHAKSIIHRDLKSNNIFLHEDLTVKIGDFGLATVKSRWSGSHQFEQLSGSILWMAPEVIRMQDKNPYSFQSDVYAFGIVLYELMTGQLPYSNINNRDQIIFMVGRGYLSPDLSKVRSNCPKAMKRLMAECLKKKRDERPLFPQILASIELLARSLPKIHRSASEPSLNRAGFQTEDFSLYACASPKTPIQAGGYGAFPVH", "assay": "Selectivity interaction (ActivX KiNativ screen (kinase selectivity in THP-1 cell lysates)) EUB0000639a BRAF", "type": "subcellular", "details": "lysate"}, "[7]": {"biological_target": "T2, Tyrosine-protein kinase Tec (Homo sapiens) (UniProt P42680)", "T2 sequence (whole entry)": "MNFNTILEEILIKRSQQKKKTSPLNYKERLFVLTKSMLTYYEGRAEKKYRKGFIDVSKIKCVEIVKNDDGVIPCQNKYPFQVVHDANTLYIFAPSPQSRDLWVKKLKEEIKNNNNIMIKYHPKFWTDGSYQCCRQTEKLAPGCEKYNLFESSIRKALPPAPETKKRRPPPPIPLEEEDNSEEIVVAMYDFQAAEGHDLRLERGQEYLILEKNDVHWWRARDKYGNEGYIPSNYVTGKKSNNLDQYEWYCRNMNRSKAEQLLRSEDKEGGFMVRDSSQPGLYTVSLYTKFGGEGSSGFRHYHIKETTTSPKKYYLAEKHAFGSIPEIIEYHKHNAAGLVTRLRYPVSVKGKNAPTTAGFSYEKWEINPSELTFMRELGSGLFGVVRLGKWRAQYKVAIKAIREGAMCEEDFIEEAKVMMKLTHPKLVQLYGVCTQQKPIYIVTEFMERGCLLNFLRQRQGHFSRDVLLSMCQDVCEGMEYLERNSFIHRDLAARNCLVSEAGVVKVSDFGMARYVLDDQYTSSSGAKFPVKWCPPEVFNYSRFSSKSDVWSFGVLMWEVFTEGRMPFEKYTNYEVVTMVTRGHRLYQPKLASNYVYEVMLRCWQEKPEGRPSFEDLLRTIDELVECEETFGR", "assay": "Selectivity interaction (ActivX KiNativ screen (kinase selectivity in THP-1 cell lysates)) EUB0000639a TEC", "type": "subcellular", "details": "lysate, at 5 µM"}, "[8]": {"biological_target": "Protein kinase C alpha type (Homo sapiens, UniProt P17252)", "assay": "Selectivity interaction (Kinase panel (Invitrogen)) EUB0000639a PRKCA", "details": "at 200 nM"}, "[9]": {"biological_target": "T3, MAP kinase-activated protein kinase 5 (Homo sapiens) (UniProt Q8IW41)", "T3 sequence (whole entry)": "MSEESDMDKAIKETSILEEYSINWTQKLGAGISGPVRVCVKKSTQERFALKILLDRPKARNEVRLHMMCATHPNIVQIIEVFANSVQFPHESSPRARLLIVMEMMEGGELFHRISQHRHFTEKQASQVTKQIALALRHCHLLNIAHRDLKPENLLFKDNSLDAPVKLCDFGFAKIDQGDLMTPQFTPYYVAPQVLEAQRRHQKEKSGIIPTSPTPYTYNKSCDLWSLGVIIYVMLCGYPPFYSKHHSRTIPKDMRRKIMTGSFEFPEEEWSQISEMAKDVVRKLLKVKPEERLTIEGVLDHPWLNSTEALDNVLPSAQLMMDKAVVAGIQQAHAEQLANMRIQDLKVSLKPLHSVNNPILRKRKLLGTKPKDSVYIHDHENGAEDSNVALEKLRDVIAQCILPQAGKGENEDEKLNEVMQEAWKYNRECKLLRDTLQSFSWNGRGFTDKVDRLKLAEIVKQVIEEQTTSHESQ", "assay": "Selectivity interaction (KinomeScan (DiscoverX)) EUB0000595a MAPKAPK5", "details": "at 10 µM"}, "[10]": {"biological_target": "Serine/threonine-protein kinase 35 (Homo sapiens) (UniProt Q8TDR2)", "sequence (Q8TDR2 whole entry)": "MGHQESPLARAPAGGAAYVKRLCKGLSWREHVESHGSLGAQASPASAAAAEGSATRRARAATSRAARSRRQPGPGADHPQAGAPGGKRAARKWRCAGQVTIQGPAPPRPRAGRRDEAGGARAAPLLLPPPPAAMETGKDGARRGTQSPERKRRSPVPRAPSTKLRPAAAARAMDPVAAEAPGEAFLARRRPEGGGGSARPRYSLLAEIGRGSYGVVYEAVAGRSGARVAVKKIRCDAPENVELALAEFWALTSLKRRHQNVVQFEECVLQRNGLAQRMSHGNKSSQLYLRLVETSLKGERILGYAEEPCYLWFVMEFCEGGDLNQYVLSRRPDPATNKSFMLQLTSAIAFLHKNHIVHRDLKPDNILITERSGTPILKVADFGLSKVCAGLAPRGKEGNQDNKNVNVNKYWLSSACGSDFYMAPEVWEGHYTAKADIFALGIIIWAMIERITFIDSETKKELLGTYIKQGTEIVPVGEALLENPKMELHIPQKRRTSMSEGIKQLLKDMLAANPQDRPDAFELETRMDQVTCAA", "assay": "Selectivity interaction (KinomeScan (DiscoverX)) EUB0001049a STK35", "details": "at 1 µM"}, "[11]": {"biological_target": "Mitogen-activated protein kinase kinase kinase kinase 1 (Homo sapiens) (UniProt Q92918)", "sequence (Q92918 whole entry, looked up)": "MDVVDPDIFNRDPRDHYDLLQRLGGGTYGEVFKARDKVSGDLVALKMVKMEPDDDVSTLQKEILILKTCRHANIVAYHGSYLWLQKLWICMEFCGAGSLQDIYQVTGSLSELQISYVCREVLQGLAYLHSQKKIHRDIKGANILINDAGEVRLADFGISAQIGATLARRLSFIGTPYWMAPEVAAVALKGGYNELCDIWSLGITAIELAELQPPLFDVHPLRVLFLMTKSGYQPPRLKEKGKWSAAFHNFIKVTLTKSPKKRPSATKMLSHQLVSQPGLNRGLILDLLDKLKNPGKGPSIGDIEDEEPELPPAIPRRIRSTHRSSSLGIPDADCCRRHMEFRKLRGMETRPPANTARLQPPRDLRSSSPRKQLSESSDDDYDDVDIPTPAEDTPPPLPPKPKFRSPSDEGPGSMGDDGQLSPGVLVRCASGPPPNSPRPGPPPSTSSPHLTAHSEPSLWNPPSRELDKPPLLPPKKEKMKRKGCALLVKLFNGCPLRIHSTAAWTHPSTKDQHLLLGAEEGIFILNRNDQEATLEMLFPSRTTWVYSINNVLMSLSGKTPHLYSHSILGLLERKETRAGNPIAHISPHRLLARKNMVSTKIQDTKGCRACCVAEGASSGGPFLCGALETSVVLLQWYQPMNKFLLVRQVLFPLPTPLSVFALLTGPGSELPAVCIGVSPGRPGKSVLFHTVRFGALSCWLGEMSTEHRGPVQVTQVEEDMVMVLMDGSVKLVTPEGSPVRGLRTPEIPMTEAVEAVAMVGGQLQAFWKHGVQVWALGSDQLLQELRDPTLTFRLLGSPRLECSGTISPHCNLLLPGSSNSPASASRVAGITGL", "assay": "Selectivity interaction (KinomeScan (DiscoverX)) EUB0000655a MAP4K1", "details": "at 10 µM"}, "[12]": {"tested_on": "Epidermal growth factor receptor (Homo sapiens), P00533 [UNDEFINED MUTATION]", "assay": "Selectivity interaction (KinomeScan (DiscoverX)) EUB0000229b EGFR", "details": "at 1 µM"}, "[13]": {"biological_target": "Inositol-tetrakisphosphate 1-kinase (Homo sapiens) (UniProt Q13572)", "sequence (Q13572 whole entry)": "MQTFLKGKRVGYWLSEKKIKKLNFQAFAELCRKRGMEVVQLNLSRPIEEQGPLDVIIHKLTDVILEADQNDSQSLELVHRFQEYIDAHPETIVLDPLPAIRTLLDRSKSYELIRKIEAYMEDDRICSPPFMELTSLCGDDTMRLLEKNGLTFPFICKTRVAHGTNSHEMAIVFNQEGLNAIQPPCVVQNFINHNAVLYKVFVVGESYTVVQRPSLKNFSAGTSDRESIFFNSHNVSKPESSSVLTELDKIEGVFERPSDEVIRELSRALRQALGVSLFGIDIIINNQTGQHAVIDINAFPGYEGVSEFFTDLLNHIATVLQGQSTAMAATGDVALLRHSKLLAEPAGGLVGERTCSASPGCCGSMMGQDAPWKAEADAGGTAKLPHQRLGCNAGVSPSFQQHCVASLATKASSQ", "assay": "Selectivity interaction (ActivX KiNativ screen (ex vivo kinase selectivity in human PBMCs)) EUB0001619a ITPK1", "type": "cell-based", "details": "PBMC, at 1 µM"}}}
{"smiles": "CC(=O)c1cc(-c2ccccc2OCC2CC2)c2ncccn12", "values": [{"measurement": "% of control", "setting": "D(2) dopamine receptor", "result": 92, "unit": "%"}]}
{"smiles": "O=C(NOC[C@H](O)CO)c1ccc(F)c(F)c1Nc1ccc(I)cc1F", "values": [{"measurement": "% of control", "setting": "[1]", "result": 54, "unit": "%"}]}
{"smiles": "CNC(=O)Nc1ccc(-c2nc(N3CC4CCC(C3)O4)c3cnn(C4CCC5(CC4)OCCO5)c3n2)cc1", "values": [{"measurement": "% of inhibition", "setting": "[2]", "result": 0, "unit": "%"}]}
{"smiles": "Cc1ccc(-c2ccc3c(ccc4sc5c(c43)NC[C@@H](C)NC5=O)n2)cn1", "values": [{"measurement": "% of inhibition", "setting": "[3]", "result": 9, "unit": "%"}, {"measurement": "% of inhibition", "setting": "[4]", "result": 3, "unit": "%"}]}
{"smiles": "CCN(CC)CCCCNc1ncc2cc(-c3cc(OC)cc(OC)c3)c(NC(=O)NC(C)(C)C)nc2n1", "values": [{"measurement": "% of control", "setting": "[5]", "result": 100, "unit": "%"}]}
{"smiles": "CC[C@@H]1[C@H](F)C(=O)N[C@@H]1COc1nccc2cc(C(N)=O)c(OC)cc12", "note": "[ZIMLOVISERTIB]", "values": [{"measurement": "% of inhibition", "setting": "[6]; at 0.01 µM", "result": 7.3, "unit": "%"}, {"measurement": "% of inhibition", "setting": "[6]; at 0.04 µM", "result": 15.4, "unit": "%"}, {"measurement": "% of inhibition", "setting": "[6]; at 0.2 µM", "result": -0.2, "unit": "%"}, {"measurement": "% of inhibition", "setting": "[6]; at 1 µM", "result": -0.4, "unit": "%"}, {"measurement": "% of inhibition", "setting": "[6]; at 5 µM", "result": -15.5, "unit": "%"}, {"measurement": "% of inhibition", "setting": "[7]", "result": -18.7, "unit": "%"}, {"measurement": "% of inhibition", "setting": "[8]", "result": 6.64, "unit": "%"}]}
{"smiles": "COCC(=O)NC/C=C/c1ccc2ncnc(Nc3ccc(Oc4ccc(C)nc4)c(C)c3)c2c1", "note": "[CP-724714]", "values": [{"measurement": "% of control", "setting": "[9]", "result": 100, "unit": "%"}]}
{"smiles": "COc1cc(Nc2nc(C)cc(-c3cnn4nc(OC)ccc34)n2)cc(C(F)(F)F)c1", "values": [{"measurement": "% of control", "setting": "[10]", "result": 100, "unit": "%"}]}
{"smiles": "CN(C)CCOc1ccc(-c2nc(-c3ccncc3)c(-c3ccc4c(c3)CC/C4=N\\O)[nH]2)cc1", "values": [{"measurement": "% of control", "setting": "[11]", "result": 97, "unit": "%"}]}
{"smiles": "COc1cc(N(C)c2ccnc3ccc(C(F)(F)F)cc23)cc(OC)c1OC", "values": [{"measurement": "% binding", "setting": "[12]", "result": 98, "unit": "%"}]}
{"smiles": "N#Cc1cccc(-c2c[nH]c3ncnc(N4CCOCC4)c23)c1", "values": [{"measurement": "% of inhibition", "setting": "[13]", "result": -28, "unit": "%"}]}
